In patent US20240158426A1, “TRANSITION METAL COMPLEX CONTAINING TETRADENTATE NITROGEN DONOR LIGAND AND ELECTROCHEMICAL BIOSENSOR COMPRISING SAME” (I-sens, Inc., priority 2020, published 2024):

Assay: Cyclic voltammetry (CV) of TPMA-based osmium complexes
Conditions: Cl^− counter ion form; Ag/AgCl reference electrode; scanning rate 10 mV/s
Description: In order to analyze electrochemical properties of the synthesized TPMA-based osmium complexes, cyclic voltammetry (CV) was used. A well-washed carbon glass electrode with a diameter of 3 mm was used as a working electrode, and an Ag/AgCl electrode was used as a reference electrode, and a Pt electrode was used as a counter electrode to measure it at a scanning rate of 10 mV/s. […] In order to find out only the position of the redox peak, the complex in a Cl^− counter ion form was measured in condition that the concentration of each substance was not constant, by measuring the Cl^− substance in a solution state during the anion exchange process. […] The change in the oxidation/reduction potential according to the type of the substituent and coordinated ligand was analyzed centering on the present complex.

With [Os(TPMA)Cl2]^+(PF6^−) [Complex 18] as the substance, how does the “oxidation/reduction potential E1/2” value read?
The value was −0.339 V.
